Laboratory results as given in patent US9127040B2, “Regulation of sodium channels by PLUNC proteins” (The University of North Carolina at Chapel Hill, priority 2011, dated 2015).
Ends that are not written are not given here.

T1: βENaC (Homo sapiens, UniProt P51168)
T1 construct: expressed in transfected cells; host or cells: HEK293T cells (lysate)
T1 sequence (P51168 1-640): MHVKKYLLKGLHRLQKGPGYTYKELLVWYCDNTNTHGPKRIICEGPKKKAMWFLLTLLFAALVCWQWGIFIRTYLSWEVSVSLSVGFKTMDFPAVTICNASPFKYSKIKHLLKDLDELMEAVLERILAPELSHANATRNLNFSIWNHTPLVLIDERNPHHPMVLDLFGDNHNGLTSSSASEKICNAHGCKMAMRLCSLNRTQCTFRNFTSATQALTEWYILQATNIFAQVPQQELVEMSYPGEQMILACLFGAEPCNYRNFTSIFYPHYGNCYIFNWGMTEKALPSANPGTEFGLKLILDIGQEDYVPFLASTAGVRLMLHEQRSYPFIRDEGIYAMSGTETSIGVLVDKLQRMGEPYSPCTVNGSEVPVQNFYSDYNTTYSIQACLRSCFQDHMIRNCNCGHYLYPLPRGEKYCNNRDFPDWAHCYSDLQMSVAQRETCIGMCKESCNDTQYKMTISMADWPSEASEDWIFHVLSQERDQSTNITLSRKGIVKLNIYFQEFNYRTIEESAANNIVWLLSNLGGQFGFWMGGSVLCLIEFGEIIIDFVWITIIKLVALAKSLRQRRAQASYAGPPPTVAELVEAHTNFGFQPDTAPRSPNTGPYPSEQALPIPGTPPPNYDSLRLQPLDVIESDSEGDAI

B1: SPLUNC1: human SPLUNC1 (SEQ ID NO:1), 256 amino acid secreted PLUNC family protein; rSPLUNC1 is the purified V5/6His-tagged recombinant form (protein, listed as Homo sapiens)
chain: MFQTGGLIVFYGLLAQTMAQFGGLPVPLDQTLPLNVNPALPLSPTGLAGSLTNALSNGLLSGGLLGILENLPLLDILKPGGGTSGGLLGGLLGKVTSVIPGLNNIIDIKVTDPQLLELGLVQSPDGHRLYVTIPLGIKLQVNTPLVGASLLRLAVKLDITAEILAVRDKQERIHLVLGDCTHSPGSLQISLLDGLGPLPIQGLLDSLTGILNKVLPELVQGNVCPLVNEVLRGLDITLVHDIVNMLIHGLQFVIKV
modifications: V5/6His tag in recombinant form
notes: rSPLUNC1 is the purified V5/6His-tagged recombinant form

Experiments:
βENaC = biological target: T1, βENaC; assay: Biotinylated peptide pull-down of ENaC subunits from HEK293T cells; type: binding
Protocol: HEK293T cells were transfected with double-tagged human ENaC subunits with HA and V5 epitopes at the N- and C-termini, respectively, in combination with wild-type untagged subunit cDNA. When all three ENaC subunits were expressed, 0.5 μg of each subunit were transfected per well. When expressed individually, 0.75 μg of the subunit were transfected per well. The transfected cells were lysed 24 h later using NP-40 buffer with 1× complete EDTA-free protease inhibitor (Roche, Basel, Switzerland). The lysate was centrifuged at 16,300×g for 15 minutes at 4° C. and the supernatant collected. Protein concentration was determined using the BCA assay and 500 μg of protein plus 0.25 mg peptide and 100 μL of neutravidin were added to a spin column and rotated end-over-end at 4° C. for 24 h (all ThermoFisher Scientific, Rockford, Ill., USA). Flow-through was collected by centrifugation at 1000×g for 30 s. The beads were then washed 5× with NP-40 buffer. Bound protein was eluted by boiling at 95° C. for 10 minutes in 75 μL of 2×LDS NuPAGE sample buffer with 1× sample reducing agent followed by centrifugation at 16,300×g for 2 minutes. Samples were resolved on 4-12% Bis-Tris gels in MES and transferred to a nitrocellulose membrane using iBlot, setting P3 for 8 min (Invitrogen, Carlsbad, Calif., USA). The membrane was probed using 1:1000 anti-V5 antibody (Invitrogen, Carlsbad, Calif., USA) overnight at 4° C. in 3% fish gelatin in TBS-T. The blot was then incubated for 1 h at room temperature with an ECL sheep anti-mouse IgG secondary antibody and detected by ECL reagent (ThermoFisher Scientific, Waltham, Mass., USA) or by incubation with a goat anti-mouse IRDye secondary antibody and analyzed by an Odyssey infrared imaging system (LI-COR Biosciences, Lincoln, Nebr., USA).
Peptide pull-down assays were performed as described above. Samples were eluted by the addition of 100 μL of 0.1 M sodium citrate, pH 5.5, 0.1% SDS to the beads and incubating at 100° C. for 2 minutes, followed by centrifugation at 16,300×g for 2 minutes. […]

NL HBECs = assay: ASL height by confocal microscopy in normal lung (NL) HBECs; type: cell-based, human; conditions: SPLUNC1 shRNA knockdown, 50 ng/ml rSPLUNC1 added to ASL
Protocol: To label airway surface liquid, Ringer containing Texas Red-dextran (2 mg/ml; Invitrogen) was added to human bronchial epithelial culture mucosal surfaces. Perfluorocarbon was added mucosally to prevent evaporation of the airway surface liquid and the culture placed in a chamber containing 100 μl Ringer on the stage of a Leica SP5 confocal microscope with a 63× glycerol immersion objective. 5 points per culture were scanned and an average airway surface liquid height determined. For confocal microscopy human bronchial epithelial cultures were bathed serosally in a modified Ringer solution containing (mM): 116 NaCl, 10 NaHCO3, 5.1 KCl, 1.2 CaCl2, 1.2 MgCl2, 20 TES, 10 glucose, pH 7.4). At all other times, human bronchial epithelial cultures were maintained in a modified BEGM growth medium which contained 24 mM NaHCO3 gassed with 5% CO2.
To label the ASL, PBS containing 10 kDa Rhodamine dextran (0.2-2 mg/mL; Invitrogen, Carlsbad, Calif., USA) was added to HBEC mucosal surfaces as previously described (Tarran et al., Mol. Cell 8:149 (2001)). When added, peptides with or without 100 nM neutrophil elastase, 1 U/mL aprotinin, activated neutrophil supernatant (ANS) (Haynes et al., Am. J. Physiol. Heart Circ. Physiol. 294:H379 (2008)) or 10 μM sivelestat (Sigma-Aldrich, St Louis, Mo., USA) were added to the mucosal surface along with the Rhodamine dextran. Bumetanide (100 μM) was added to the serosal solution.

Molecule	glycosylation dependence of β-ENaC interaction (βENaC; EndoH treated elution, tunicamycin treated cells)	binding to βENaC (pull-down) (βENaC; subunits individually expressed, biotinylated peptide)	regulation of airway surface liquid height in cultures lacking SPLUNC1 (NL HBECs)	regulation of airway surface liquid height in cultures lacking SPLUNC1 (NL HBECs; listed as recombinant SPLUNC1)
GGLPVPLDQTLPLNVNPA [S18]	glycosylation dependent	binds exclusively to βENaC		
B1			restored	sufficient to restore ASL volume regulation
